Experimental findings from ChEMBL document CHEMBL1133899, “Amino acid derived sulfonamide hydroxamates as inhibitors of procollagen C-proteinase: solid-phase synthesis of ornithine analogues” (Bioorg Med Chem Lett, 2001) are described below.

Molecules are shown by their SMILES.

One may read the IC50 as the concentration at which inhibition is half-maximal.

One test concerns the target T1, Bone morphogenetic protein 1 (Homo sapiens, UniProt P13497).
T1 sequence (P13497 whole entry): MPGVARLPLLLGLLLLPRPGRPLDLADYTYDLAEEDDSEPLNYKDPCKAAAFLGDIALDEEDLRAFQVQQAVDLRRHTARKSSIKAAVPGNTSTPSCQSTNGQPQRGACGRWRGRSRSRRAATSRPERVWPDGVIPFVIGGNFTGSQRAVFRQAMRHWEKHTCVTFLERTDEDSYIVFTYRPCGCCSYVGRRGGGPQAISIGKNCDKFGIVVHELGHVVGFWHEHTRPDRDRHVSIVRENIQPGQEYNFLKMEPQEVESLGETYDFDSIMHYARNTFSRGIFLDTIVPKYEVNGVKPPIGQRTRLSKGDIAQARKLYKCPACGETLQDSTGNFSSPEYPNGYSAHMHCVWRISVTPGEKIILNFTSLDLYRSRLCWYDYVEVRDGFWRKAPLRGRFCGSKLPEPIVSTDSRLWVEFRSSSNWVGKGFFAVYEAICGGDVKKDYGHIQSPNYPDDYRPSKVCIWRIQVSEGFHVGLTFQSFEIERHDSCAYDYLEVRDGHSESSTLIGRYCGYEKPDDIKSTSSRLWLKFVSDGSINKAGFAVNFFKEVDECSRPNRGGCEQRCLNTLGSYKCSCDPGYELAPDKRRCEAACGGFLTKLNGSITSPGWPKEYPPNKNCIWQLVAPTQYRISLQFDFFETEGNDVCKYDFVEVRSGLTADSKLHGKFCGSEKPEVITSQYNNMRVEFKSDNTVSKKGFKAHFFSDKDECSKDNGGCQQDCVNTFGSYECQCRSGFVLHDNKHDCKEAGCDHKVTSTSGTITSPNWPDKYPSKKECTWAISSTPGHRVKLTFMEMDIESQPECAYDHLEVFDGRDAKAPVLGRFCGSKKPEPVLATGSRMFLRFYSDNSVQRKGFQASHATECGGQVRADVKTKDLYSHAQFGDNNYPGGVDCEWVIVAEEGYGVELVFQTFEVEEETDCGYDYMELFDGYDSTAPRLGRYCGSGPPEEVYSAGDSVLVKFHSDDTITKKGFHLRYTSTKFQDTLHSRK
As to the kind of experiment: Inhibitory activity against procollagen C-Proteinase (PCP).
The molecule `COc1ccc(S(=O)(=O)N(Cc2ccc3c(c2)OCO3)[C@H](CCCNC(=O)OCc2ccccc2Br)C(=O)NO)cc1` returned an IC50 of 0.024 µM.
On the same count and under the same terms, in the case of `COc1ccc(S(=O)(=O)N(Cc2ccc3c(c2)OCO3)[C@H](CCCNC(=O)OCc2ccccc2)C(=O)NO)cc1` it was 0.009 µM; in that of `COc1ccc(S(=O)(=O)N(Cc2ccc3c(c2)OCO3)[C@H](CCCNC(=O)OCc2ccccc2Cl)C(=O)NO)cc1`, 0.0039 µM; in that of `COc1ccc(S(=O)(=O)N(Cc2ccc3c(c2)OCO3)[C@H](CCCNC(=O)NCc2ccccc2)C(=O)NO)cc1`, 0.058 µM.
In turn, `COc1ccc(S(=O)(=O)N[C@H](CCCNC(=O)C2CC2)C(=O)NO)cc1` registered an IC50 of 0.77 µM.
Consider `C[C@@H](NC(=O)NCCC[C@@H](NS(=O)(=O)c1ccc(F)cc1Cl)C(=O)NO)c1ccccc1`, for which the IC50 was 61 µM.
As to `COc1ccc(S(=O)(=O)N[C@H](CCCNC(=O)N[C@@H]2C[C@H]2c2ccccc2)C(=O)NO)cc1`, the IC50 was found to be 0.17 µM.
For `COc1ccc(S(=O)(=O)N[C@@H](CCCNC(=O)NCCc2cccs2)C(=O)NO)cc1`, the IC50 came to 5.5 µM.
On the same count and under the same terms, in the case of `COC(=O)[C@@H](Cc1ccccc1)NC(=O)NCCC[C@@H](NS(=O)(=O)c1ccc(OC)cc1)C(=O)NO` it was 0.14 µM; in that of `COc1ccc(S(=O)(=O)N[C@H](CCCNC(=O)N[C@H](C)c2ccccc2)C(=O)NO)cc1`, 0.11 µM; in that of `COc1ccc(S(=O)(=O)N(Cc2ccc3c(c2)OCO3)[C@H](CCCNC(=O)NCc2cccc3ccccc23)C(=O)NO)cc1`, 0.12 µM.
Regarding `COc1ccc(S(=O)(=O)N[C@H](CCCNC(=O)Nc2cccc(F)c2)C(=O)NO)cc1`, the IC50 was determined as 0.16 µM.
`COc1ccc(S(=O)(=O)N[C@H](CCCNC(=O)Nc2ccccc2C)C(=O)NO)cc1`: the midpoint of inhibition, the IC50, lay at 0.26 µM.
On the same count and under the same terms, in the case of `COc1ccc(S(=O)(=O)N[C@@H](CCCNC(=O)N[C@H](C)c2cccc3ccccc23)C(=O)NO)cc1` it was 1.6 µM.
The molecule `COc1ccc(S(=O)(=O)N(Cc2ccc3c(c2)OCO3)[C@H](CCCNC(=O)OCC(C)C)C(=O)NO)cc1` gave an IC50 of 0.045 µM.
Regarding `COc1ccc(S(=O)(=O)N(Cc2ccc3c(c2)OCO3)[C@H](CCCNC(=O)NCc2cccc(C)c2)C(=O)NO)cc1`, the IC50 was 0.05 µM.
Still for that read-out and setting: in the case of `COc1ccc(S(=O)(=O)N(Cc2ccc3c(c2)OCO3)[C@H](CCCNC(=O)OCc2cccc([N+](=O)[O-])c2)C(=O)NO)cc1` it was 0.038 µM.
The same measure, in the same setting: in the case of `COc1ccc(S(=O)(=O)N[C@@H](CCCNC(=O)Nc2cccc(F)c2)C(=O)NO)cc1` it was 4 µM; in that of `COc1ccc(S(=O)(=O)N[C@H](CCCNC(=O)C2CCCCC2)C(=O)NO)cc1`, 1.6 µM; in that of `CCCNC(=O)NCCC[C@H](C(=O)NO)N(Cc1ccc2c(c1)OCO2)S(=O)(=O)c1ccc(OC)cc1`, 0.097 µM.
Still for that read-out and setting: in the case of `COc1ccc(S(=O)(=O)N[C@@H](CCCNC(=O)Nc2ccccc2Cl)C(=O)NO)cc1` it was 7.8 µM; in that of `CCOC(=O)NCCC[C@H](C(=O)NO)N(Cc1ccc2c(c1)OCO2)S(=O)(=O)c1ccc(OC)cc1`, 0.22 µM.
As for `C[C@@H](NC(=O)NCCC[C@@H](NS(=O)(=O)c1ccc(Cl)cc1)C(=O)NO)c1ccccc1`, the IC50 came out at 0.91 µM.
Turning to `COc1cc(C)c(S(=O)(=O)N[C@H](CCCNC(=O)N[C@H](C)c2ccccc2)C(=O)NO)c(C)c1`, inhibition was half-maximal at 23 µM (IC50).
Still for that read-out and setting: in the case of `COc1ccc(S(=O)(=O)N[C@H](CCCNC(=O)NCCc2cccs2)C(=O)NO)cc1` it was 0.078 µM.
Same read-out and setting: in the case of `COc1ccc(S(=O)(=O)N[C@H](CCCNC(=O)N[C@H](C)c2cccc3ccccc23)C(=O)NO)cc1` it was 0.16 µM; in that of `COc1ccc(S(=O)(=O)N(Cc2ccc3c(c2)OCO3)[C@H](CCCNC(=O)c2ccccc2)C(=O)NO)cc1`, 0.098 µM; in that of `COc1ccc(S(=O)(=O)N(Cc2ccc3c(c2)OCO3)[C@H](CCCNC(=O)NCCc2ccccc2)C(=O)NO)cc1`, 0.05 µM.
The molecule `COc1ccc(S(=O)(=O)N[C@@H](CCCNC(=O)N[C@H](C)c2ccccc2)C(=O)NO)cc1` displayed an IC50 of 2.1 µM.
Molecule `C[C@@H](NC(=O)NCCC[C@@H](NS(=O)(=O)c1ccc(Cl)s1)C(=O)NO)c1ccccc1` came in with an IC50 of 9.6 µM.
Same read-out and setting: in the case of `COc1ccc(S(=O)(=O)N[C@H](CCCNS(=O)(=O)c2ccccc2)C(=O)NO)cc1` it was 3.4 µM.
As to `COc1ccc(S(=O)(=O)N[C@H](CCCNC(=O)CCc2ccccc2)C(=O)NO)cc1`, the IC50 is 0.97 µM.
Still for that read-out and setting: in the case of `COc1ccc(S(=O)(=O)N[C@@H](CCCNC(=O)Nc2ccccc2)C(=O)NO)cc1` it was 6.9 µM; in that of `COc1ccc(S(=O)(=O)N(Cc2ccc3c(c2)OCO3)[C@H](CCCNC(=O)OCc2ccc([N+](=O)[O-])cc2)C(=O)NO)cc1`, 0.045 µM; in that of `COc1ccc(S(=O)(=O)N[C@H](CCCNC(=O)Nc2ccccc2)C(=O)NO)cc1`, 0.055 µM.
As for `C[C@@H](NC(=O)NCCC[C@@H](NS(=O)(=O)c1ccc(S(=O)(=O)c2cccs2)cc1)C(=O)NO)c1ccccc1`, the IC50 is 5 µM.
`COc1ccc(S(=O)(=O)N[C@@H](CCCNC(=O)NC2CC2c2ccccc2)C(=O)NO)cc1` (stereo partly specified) yielded an IC50 of 0.29 µM.
Same read-out and setting: in the case of `COc1ccc(S(=O)(=O)N(C)[C@H](CCCNC(=O)Nc2ccccc2)C(=O)NO)cc1` it was 1.6 µM; in that of `COc1ccc(S(=O)(=O)N[C@H](CCCNC(=S)NCc2ccccc2)C(=O)NO)cc1`, 0.99 µM.
Regarding `COc1ccc(S(=O)(=O)N[C@@H](CCCNC(=O)NC2CCCCC2)C(=O)NO)cc1`, half-maximal inhibition (IC50) required 3.6 µM.
The same measure, in the same setting: in the case of `COc1ccc(S(=O)(=O)N[C@H](CCCNC(=O)Nc2ccccc2Cl)C(=O)NO)cc1` it was 0.092 µM; in that of `COc1ccc(S(=O)(=O)N[C@H](CCC/N=C(\S)NC2CCCCC2)C(=O)NO)cc1`, 1.7 µM; in that of `COc1ccc(S(=O)(=O)N[C@H](CCCNC(=O)OC(C)(C)C)C(=O)NO)cc1`, 4.5 µM.
Consider `COc1ccc(S(=O)(=O)N[C@H](CCCNC(=O)C(C)C)C(=O)NO)cc1`, for which the IC50 worked out at 1.4 µM.
In the case of `C[C@@H](NC(=O)NCCC[C@@H](NS(=O)(=O)c1ccccc1Cl)C(=O)NO)c1ccccc1`, the IC50 came out at 2.3 µM.
On the same count and under the same terms, in the case of `COc1ccc(S(=O)(=O)N(C)[C@H](CCCNC(=O)Nc2ccccc2Cl)C(=O)NO)cc1` it was 7.2 µM; in that of `COC(=O)[C@@H](Cc1ccccc1)NC(=O)NCCC[C@H](NS(=O)(=O)c1ccc(OC)cc1)C(=O)NO`, 5.9 µM.
Same read-out and setting: in the case of `COc1ccc(S(=O)(=O)N(C)[C@H](CCCNC(=O)NC(C)c2ccccc2)C(=O)NO)cc1` (stereo partly specified) it was 2.3 µM; in that of `COc1ccc(S(=O)(=O)N(Cc2cccnc2)[C@@H](C(=O)NO)C(C)C)cc1` [CGS-27023A], 3 µM.

A further test concerns the target T1, Bone morphogenetic protein 1. Put plainly: The compound was evaluated for its inhibitory effect against Procollagen C-terminal proteinase.
Turning to `COc1ccc(S(=O)(=O)N[C@H](CCCNC(=O)N[C@H](C)c2ccccc2)C(=O)NO)cc1`, the IC50 came to 0.11 µM.
`COc1ccc(S(=O)(=O)N[C@H](CCCNC(=O)NC2CCCCC2)C(=O)NO)cc1` showed an IC50 of 0.23 µM.
